Measurements from patent US12625150B2, “Treatment of, and differential diagnosis between, ACTH-dependent Cushing's syndrome and ACTH-independent Cushing's syndrome” (Corcept Therapeutics Incorporated, priority 2019, dated 2026).
“And” between values parts separate entries of the source, which are not always exact repeats. Identical values can stand only once.

Experiments:
[1] = test system: serum ACTH and cortisol levels; experiment: Serum ACTH and cortisol levels and ACTH:cortisol ratio in Cushing's syndrome patients administered relacorilant; assay type: in vivo, human; conditions: for change in ACTH:cortisol ratio following treatment: relacorilant 100-400 mg/day, six weeks
Method: Cushing's syndrome (CS) patients were examined and serum levels of ACTH and cortisol were measured in blood samples obtained from the patients. The serum ACTH and cortisol levels determined prior to administration of glucocorticoid receptor antagonist (GRA) therapy were used to calculate baseline ACTH:cortisol ratios (basal ACTH:cortisol ratios). […] The patients then received oral glucocorticoid receptor antagonist (GRA) therapy (either mifepristone or relacorilant, typically daily) for at least six weeks. The serum ACTH and cortisol levels determined after these six weeks of GRA therapy were used to calculate after-GRA ACTH:cortisol ratios. Three patients were treated with relacorilant (100 milligrams (mg) per day, titrated up to 400 mg per day, as tolerated; see Table 1). […] The results of these clinical measurements in Cushing's syndrome patients administered relacorilant (100 milligrams (mg) per day, titrated up to 400 mg per day, as tolerated) are presented in the Table 1: […]

[2] = test system: serum ACTH and cortisol levels; experiment: Serum ACTH and cortisol levels and ACTH:cortisol ratio in Cushing's syndrome patients administered mifepristone; assay type: in vivo, human

Row | Compound | change in ACTH:cortisol ratio following treatment ([1]; CS patient with pituitary tumor (ACTH-dependent Cushing's syndrome)) | Week 6 Serum Cortisol ([1]; adrenal CS patients (ACTH-independent), after six weeks of oral relacorilant 100 mg/day titrated up to 400 mg/day) | Baseline Serum Cortisol ([1]; adrenal CS patients (ACTH-independent), prior to relacorilant) | Week 6 Serum Cortisol ([1]; pituitary CS patient (ACTH-dependent), after six weeks of oral relacorilant 100 mg/day titrated up to 400 mg/day) | Baseline Serum Cortisol ([1]; pituitary CS patient (ACTH-dependent), prior to relacorilant) | Week 6 ACTH ([1]; pituitary CS patient (ACTH-dependent), serum, after six weeks of oral relacorilant 100 mg/day titrated up to 400 mg/day) | Baseline ACTH ([1]; pituitary CS patient (ACTH-dependent), serum, prior to relacorilant) | Post-Treatment Ratio (ACTH:cortisol) ([1]; pituitary CS patient, ACTH in pg/ml divided by cortisol in μg/dL, after six weeks of oral relacorilant 100-400 mg/day) | Baseline Ratio (ACTH:cortisol) ([1]; pituitary CS patient, ACTH in pg/ml divided by cortisol in μg/dL, prior to relacorilant) | change in ACTH:cortisol ratio following treatment ([1]; two CS patients with adrenal tumors (ACTH-independent Cushing's syndrome)) | Basal ACTH ([2]; individual patients with confirmed pituitary CS (ACTH dependent), serum, prior to mifepristone) | Day 14 Serum Cortisol ([2]; individual patients with confirmed pituitary CS, day 14 of oral mifepristone 300 mg/day titrated up to 900 mg/day) | Basal Serum Cortisol ([2]; individual patients with confirmed pituitary CS, prior to mifepristone) | Day 14 ACTH ([2]; individual patients with confirmed pituitary CS, serum, day 14 of oral mifepristone 300 mg/day titrated up to 900 mg/day) | Week 6 Basal ACTH ([2]; individual patients with confirmed pituitary CS, serum, week 6 of oral mifepristone 300 mg/day titrated up to 900 mg/day) | Week 6 Serum Cortisol ([2]; individual patients with confirmed pituitary CS, week 6 of oral mifepristone 300 mg/day titrated up to 900 mg/day)
1 | Cn1cc(S(=O)(=O)N2CCC3=Cc4c(cnn4-c4ccc(F)cc4)C[C@]3(C(=O)c3cc(C(F)(F)F)ccn3)C2)cn1 [relacorilant, (R)-(1-(4-fluorophenyl)-6-((1-methyl-1H-pyrazol-4-yl)sulfonyl)-4,4a,5,6,7,8-hexahydro-1H-pyrazolo[3,4-g]isoquinolin-4a-yl)(4-(trifluoromethyl)pyridin-2-yl)methanone] | increased | 14.9 µg/dL and 17.1 µg/dL | 13.6 µg/dL and 16.2 µg/dL | 28.7 µg/dL | 20.7 µg/dL | 39.8 pg/mL | 23.9 pg/mL | 1.39 | 1.15 | decreased |  |  |  |  |  | 
2 | CC#C[C@]1(O)CC[C@H]2[C@@H]3CCC4=CC(=O)CCC4=C3[C@@H](c3ccc(N(C)C)cc3)C[C@@]21C [mifepristone, 11β-(4-dimethylaminophenyl)-17β-hydroxy-17α-(1-propynyl)-estra-4,9-dien-3-one] |  |  |  |  |  |  |  |  |  |  | 16 pg/mL and 21 pg/mL and 20 pg/mL and 7 pg/mL and 15 pg/mL and 8 pg/mL | 486 nmol/L and 955 nmol/L and 914 nmol/L and 900 nmol/L and 809 nmol/L and 613 nmol/L | 337 nmol/L and 632 nmol/L and 734 nmol/L and 317 nmol/L and 494 nmol/L and 502 nmol/L | 34 pg/ml (2×) and 53 pg/ml and 21 pg/ml and 30 pg/ml and 22 pg/ml | 57 pg/mL and 52 pg/mL and 65 pg/mL and 24 pg/mL and 49 pg/mL and 20 pg/mL | 679 nmol/L and 999 nmol/L and 1151 nmol/L and 955 nmol/L and 731 nmol/L and 654 nmol/L
